Reference: ChEMBL document CHEMBL1152627, “Structure-activity relationship of antiparasitic and cytotoxic indoloquinoline alkaloids, and their tricyclic and bicyclic analogues” (Bioorg Med Chem, 2009)
Counter-ions that a name gives are not always drawn. Calls of active or inactive are those of the source. The calls are words filed in the database; no cut-off is given here.

Test system: Nucleic Acid
Assay: Displacement of methyl green dye from DNA
Assay type: nucleic-acid assay
Conditions: not given

Compound | inhibition | IC50 [µM]
C[n+]1cc2[nH]c3ccccc3c2c2ccccc21 [ISONEOCRYPTOLEPINE HYDROCHLORIDE] | Active | –
Cn1ccc2c3ccccc3nc-2c1 | – | > 3800
Cn1cc2c3ccccc3nc-2c2ccccc21 [ISOCRYPTOLEPINE HYDROCHLORIDE] | Active | –
C[n+]1ccc2c(c1)[nH]c1ccccc12 | – | > 2800
Cn1cc2ccccc2c2c3ccccc3nc1-2 | – | 81
Cn1cc2ccccc2c2c3ccccc3nc1-2.I | – | 87
C[n+]1c2ccccc2cc2[n-]c3ccccc3c21 [CRYPTOLEPINE HYDROCHLORIDE] | Active | –
Cn1c2nc3ccccc3c-2cc2ccccc21 [NEOCRYPTOLEPINE HYDROCHLORIDE] | Active | –

Test system: Trypanosoma brucei rhodesiense
Assay: Antitrypanosomal activity against Trypanosoma brucei rhodesiense
Assay type: functional, organism-based
Conditions: not given

Compound | IC50 [µM]
Cn1ccc2nc3ccccc3c-2c1 [listing 1 of 2 here] | 138
Cn1cccc2c3ccccc3nc1-2 [listing 1 of 2 here] | 34
Cn1cc2ccccc2c2c3ccccc3nc1-2 | 3.33
Cn1cccc2nc3ccccc3c1-2 [listing 1 of 2 here] | 138
Cn1cc2ccccc2c2nc3ccccc3c1-2 | 0.72

Same assay, conditions: Trypanosoma brucei

Compound | IC50 [µM]
Cn1cccc2c3ccccc3nc1-2 [listing 2 of 2 here] | 21.3
c1ccc2c(c1)ncc1[nH]ccc12 | 25.5
Cn1ccc2nc3ccccc3c-2c1 [listing 2 of 2 here] | 109
C[n+]1cc2[nH]c3ccccc3c2c2ccccc21 [ISONEOCRYPTOLEPINE HYDROCHLORIDE] | 6.48
Cn1cccc2nc3ccccc3c1-2 [listing 2 of 2 here] | 86.1
Cn1ccc2c3ccccc3nc-2c1 | 93.7
c1ccc2c(c1)cnc1[nH]ccc12 | 43.5
Cn1cc2c3ccccc3nc-2c2ccccc21 [ISOCRYPTOLEPINE HYDROCHLORIDE] | 0.52
C[n+]1ccc2c(c1)[nH]c1ccccc12 | 155
Cn1cc2ccccc2c2c3ccccc3nc1-2.I | 2.59
C[n+]1c2ccccc2cc2[n-]c3ccccc3c21 [CRYPTOLEPINE HYDROCHLORIDE] | 0.6
Cn1c2nc3ccccc3c-2cc2ccccc21 [NEOCRYPTOLEPINE HYDROCHLORIDE] | 2.23

Test system: Trypanosoma cruzi
Assay: Antitrypanosomal activity against Trypanosoma cruzi
Assay type: functional, organism-based
Conditions: not given

Compound | IC50 [µM]
Cn1cccc2c3ccccc3nc1-2 [listing 2 of 2 here] | 89.2
Cn1ccc2nc3ccccc3c-2c1 [listing 2 of 2 here] | > 95
Cn1cccc2nc3ccccc3c1-2 [listing 2 of 2 here] | > 95
Cn1cc2ccccc2c2c3ccccc3nc1-2 | 20.7
Cn1cc2ccccc2c2nc3ccccc3c1-2 | 1.66

Same assay, conditions: Trypanosoma cruzi

Compound | IC50 [µM]
Cn1ccc2nc3ccccc3c-2c1 [listing 1 of 2 here] | > 160
c1ccc2c(c1)ncc1[nH]ccc12 | 81
C[n+]1cc2[nH]c3ccccc3c2c2ccccc21 [ISONEOCRYPTOLEPINE HYDROCHLORIDE] | 21
Cn1cccc2c3ccccc3nc1-2 [listing 1 of 2 here] | 64.5
Cn1ccc2c3ccccc3nc-2c1 | > 160
c1ccc2c(c1)cnc1[nH]ccc12 | 69.6
Cn1cc2c3ccccc3nc-2c2ccccc21 [ISOCRYPTOLEPINE HYDROCHLORIDE] | 1.27
C[n+]1ccc2c(c1)[nH]c1ccccc12 | > 95
Cn1cc2ccccc2c2c3ccccc3nc1-2.I | 11.9
C[n+]1c2ccccc2cc2[n-]c3ccccc3c21 [CRYPTOLEPINE HYDROCHLORIDE] | 0.22
Cn1c2nc3ccccc3c-2cc2ccccc21 [NEOCRYPTOLEPINE HYDROCHLORIDE] | 2.01
Cn1cccc2nc3ccccc3c1-2 [listing 1 of 2 here] | > 160

Test system: not listed separately
Assay: (§1) Toxicity against rat L6 cells
Assay type: cell-based
Conditions: rat, L6 cells

Compound | IC50 [µM]
Cn1ccc2nc3ccccc3c-2c1 [listing 1 of 2 here] | 390
c1ccc2c(c1)ncc1[nH]ccc12 | 173
Cn1cccc2nc3ccccc3c1-2 [listing 2 of 2 here] | 132
Cn1cccc2c3ccccc3nc1-2 [listing 1 of 2 here] | 236
Cn1ccc2c3ccccc3nc-2c1 | > 490
c1ccc2c(c1)cnc1[nH]ccc12 | 119
C[n+]1ccc2c(c1)[nH]c1ccccc12 | > 290
Cn1cc2ccccc2c2c3ccccc3nc1-2.I | 1.5
Cn1cc2ccccc2c2nc3ccccc3c1-2 | 1.48

Test system: L6
Assay: as §1
Assay type: cell-based
Conditions: l6

Compound | IC50 [µM]
Cn1cccc2c3ccccc3nc1-2 [listing 2 of 2 here] | 300
Cn1ccc2nc3ccccc3c-2c1 [listing 2 of 2 here] | > 290
Cn1cc2ccccc2c2c3ccccc3nc1-2 | 1.3
Cn1cccc2nc3ccccc3c1-2 [listing 1 of 2 here] | 179

Test system: not listed separately
Assay: Inhibition of beta-hematin formation by BHIA assay
Assay type: functional
Conditions: not given

Compound | inhibition | IC50 [molar equivalents]
C[n+]1cc2[nH]c3ccccc3c2c2ccccc21 [ISONEOCRYPTOLEPINE HYDROCHLORIDE] | Active | –
Cn1ccc2c3ccccc3nc-2c1 | inactive | –
Cn1cc2c3ccccc3nc-2c2ccccc21 [ISOCRYPTOLEPINE HYDROCHLORIDE] | Active | –
Cn1cc2ccccc2c2c3ccccc3nc1-2 | – | 2.76
Cn1cc2ccccc2c2c3ccccc3nc1-2.I | – | 3.32
C[n+]1c2ccccc2cc2[n-]c3ccccc3c21 [CRYPTOLEPINE HYDROCHLORIDE] | Active | –
Cn1c2nc3ccccc3c-2cc2ccccc21 [NEOCRYPTOLEPINE HYDROCHLORIDE] | Active | –

Test system: Plasmodium falciparum
Assay: Antimalarial activity against chloroquine and pyrimethamine-resistant Plasmodium falciparum K1 by [3H]hypoxanthine incorporation assay
Assay type: functional, organism-based
Conditions: not given

Compound | IC50 [µM]
Cn1cccc2c3ccccc3nc1-2 [listing 2 of 2 here] | 14.7
Cn1ccc2nc3ccccc3c-2c1 [listing 2 of 2 here] | 2.4
Cn1cc2ccccc2c2c3ccccc3nc1-2.I | 0.032
Cn1cccc2nc3ccccc3c1-2 [listing 1 of 2 here] | 0.48

Same assay, conditions: Plasmodium falciparum, K1

Compound | IC50 [µM]
Cn1ccc2nc3ccccc3c-2c1 [listing 1 of 2 here] | 2.1
c1ccc2c(c1)ncc1[nH]ccc12 | 6.4
C[n+]1cc2[nH]c3ccccc3c2c2ccccc21 [ISONEOCRYPTOLEPINE HYDROCHLORIDE] | 0.23
Cn1cccc2nc3ccccc3c1-2 [listing 2 of 2 here] | 0.38
Cn1cccc2c3ccccc3nc1-2 [listing 1 of 2 here] | 13
Cn1ccc2c3ccccc3nc-2c1 | 0.45
c1ccc2c(c1)cnc1[nH]ccc12 | 23.2
Cn1cc2c3ccccc3nc-2c2ccccc21 [ISOCRYPTOLEPINE HYDROCHLORIDE] | 0.78
C[n+]1ccc2c(c1)[nH]c1ccccc12 | 0.34
Cn1cc2ccccc2c2c3ccccc3nc1-2 | 0.04
C[n+]1c2ccccc2cc2[n-]c3ccccc3c21 [CRYPTOLEPINE HYDROCHLORIDE] | 0.12
Cn1c2nc3ccccc3c-2cc2ccccc21 [NEOCRYPTOLEPINE HYDROCHLORIDE] | 2.61
Cn1cc2ccccc2c2nc3ccccc3c1-2 | 0.64

Test system: Leishmania donovani
Assay: Antileishmanial activity against Leishmania donovani axenic amastigotes
Assay type: functional, organism-based
Conditions: not given

Compound | IC50 [µM]
Cn1ccc2nc3ccccc3c-2c1 [listing 2 of 2 here] | > 95
Cn1cccc2nc3ccccc3c1-2 [listing 2 of 2 here] | > 95
Cn1cccc2c3ccccc3nc1-2 [listing 1 of 2 here] | > 95
Cn1cc2ccccc2c2c3ccccc3nc1-2.I | 6.6

Same assay, conditions: Leishmania donovani

Compound | IC50 [µM]
Cn1ccc2nc3ccccc3c-2c1 [listing 1 of 2 here] | > 160
Cn1cccc2c3ccccc3nc1-2 [listing 2 of 2 here] | > 160
c1ccc2c(c1)ncc1[nH]ccc12 | 183
C[n+]1cc2[nH]c3ccccc3c2c2ccccc21 [ISONEOCRYPTOLEPINE HYDROCHLORIDE] | 75.4
Cn1ccc2c3ccccc3nc-2c1 | 92.1
c1ccc2c(c1)cnc1[nH]ccc12 | 30.3
Cn1cc2c3ccccc3nc-2c2ccccc21 [ISOCRYPTOLEPINE HYDROCHLORIDE] | 39.1
C[n+]1ccc2c(c1)[nH]c1ccccc12 | 52.3
Cn1cc2ccccc2c2c3ccccc3nc1-2 | 4.8
C[n+]1c2ccccc2cc2[n-]c3ccccc3c21 [CRYPTOLEPINE HYDROCHLORIDE] | 2.68
Cn1c2nc3ccccc3c-2cc2ccccc21 [NEOCRYPTOLEPINE HYDROCHLORIDE] | 49.5
Cn1cccc2nc3ccccc3c1-2 [listing 1 of 2 here] | > 160
Cn1cc2ccccc2c2nc3ccccc3c1-2 | 15.5
